From ChEMBL document CHEMBL1201862, “PubChem BioAssay data set” (2004)
Active and inactive are the calls of the source. Cut-off read from the data, not from the text of the source, for most assays here: actives have a measured EC50 and inactives only a lower limit.

Tests used:
[1] = Trypanosoma cruzi growth suppression in host cells – NIH3T3 host cells, beta-gal luminescence, confirmation (AID 2044); format: functional, cell-based;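 note: intracellular parasites grown in NIH/3T3 mouse fibroblasts as host cells; luminescent beta-galactosidase reporter signal from transgenic T. cruzi replicating inside host cells; inhibitors lower the luminescence signal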
[2] = NIH3T3 cell viability loss – ATP luminescence, mouse fibroblasts, counter-screen, dose response (AID 2010); format: functional, cell-based;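 note: cells exposed to compound for about 90 hours before reading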
[3] = Luminescence Cell-Based Dose Response to Identify Activators of 5'UTR Stem-Loop Driven Prion Protein mRNA Translation in H4-C Neuroglioblastoma Cells. [Related pubchem assays: 1829 (Project Summary), 1814 (Primary HTS)]; format: functional
[4] = Luminescence Cell-Based Dose Confirmation HTS to Identify Activators of 5'UTR Stem-Loop Driven Alpha-Synuclein mRNA Translation in H4 Neuroglioblastoma Cells. [Related pubchem assays: 1829 (Project Summary), 1814 (Primary HTS)]; format: functional
[5] = Luminescence Cell-Based Dose Response HTS to Identify Activators of Luciferase Translation or Activity in H4 […] Cells. [Related pubchem assays: 1829 (Project Summary), 1814 (Primary HTS)]; format: functional
H4 = test: Luminescence Cell-Based Dose Response HTS to Identify Activators of 5'UTR Stem-Loop Driven Prion Protein mRNA Translation in H4 Neuroglioblastoma Cells. [Related pubchem assays: 1829 (Project Summary), 1814 (Primary HTS)]; format: functional; settings: Homo sapiens
[6] = Luminescence Cell-Based Dose Response to Identify Activators of Luciferase Translation or Activity in H4-C Neuroglioblastoma Cells. [Related pubchem assays: 1829 (Project Summary), 1814 (Primary HTS)]; format: functional
[7] = Luminescence Cell-Based Dose Confirmation to Identify Activators of 5'UTR Stem-Loop Driven Alpha-Synuclein mRNA Translation in H4 Neuroglioblastoma Cells. [Related pubchem assays: 1829 (Project Summary), 1814 (Primary HTS)]; format: functional
[8] = luciferase reporter signal suppression in cells – H4 neuroglioma cells, luminescence, dose response (AID 1990); format: functional, cell-based
[9] = Luminescence Cell-Based Dose Response HTS to Identify Inhibitors of 5'UTR Stem-Loop Driven Prion Protein mRNA Translation in H4 Neuroglioblastoma Cells. [Related pubchem assays: 1827 (Project Summary), 1813 (Primary HTS)]; format: functional
[10] = alpha-synuclein stem-loop luciferase translation blockers – H4 neuroglioma cells, luminescence, confirmation (AID 1988); format: functional, cell-based
INS1 = test: INS-1E survival protection against cytokine death – cell-based, luminescence, retest, dose response (AID 449756); format: functional; settings: Rattus norvegicus;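 note: cell death triggered by IL-1 beta plus TNF-alpha plus IFN-gamma mixture; protective hits raise ATP signal compared with cytokine alone wells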
[11] = tested on: Streptococcus sp. 'group A'; test: Streptococcus pyogenes SK(-)GAS viability under kanamycin – luminescence, BacTiterGlo, confirmation, counter-screen for streptokinase expression inhibitor project, dose response (AID 1900); format: functional, organism-based
Streptokinase A = target: T1, Streptokinase A (Streptococcus pyogenes serotype M1, UniProt P10520); test: viability-normalized secreted streptokinase activity reduction – plasminogen activation absorbance, OD405, dose response (AID 1914); format: functional, Streptococcus pyogenes M1 GAS;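 note: secreted streptokinase activity via plasminogen activation per viability signal from cell pellet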
T1 sequence (P10520 whole entry): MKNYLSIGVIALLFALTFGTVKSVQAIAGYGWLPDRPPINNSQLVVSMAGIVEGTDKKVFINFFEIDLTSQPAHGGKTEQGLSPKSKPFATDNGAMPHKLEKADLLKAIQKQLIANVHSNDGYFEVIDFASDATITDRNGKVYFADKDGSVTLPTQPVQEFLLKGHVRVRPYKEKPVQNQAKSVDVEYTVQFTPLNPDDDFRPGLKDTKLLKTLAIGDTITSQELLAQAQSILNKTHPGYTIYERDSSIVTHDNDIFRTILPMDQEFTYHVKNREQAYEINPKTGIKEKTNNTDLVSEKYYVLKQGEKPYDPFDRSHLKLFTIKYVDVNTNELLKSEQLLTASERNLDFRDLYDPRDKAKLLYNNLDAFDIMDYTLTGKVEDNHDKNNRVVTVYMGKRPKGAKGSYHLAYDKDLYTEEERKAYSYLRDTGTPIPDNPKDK

Streptococcus = test: GAS UMAA2166 growth inhibition – luminescence, BacTiterGlo, counter-screen for streptokinase expression inhibitor project, dose response (AID 1915); format: functional, organism-based;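 note: potency for reduction of bacterial viability or growth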
[12] = target: T2, Mannose-6-phosphate isomerase (Homo sapiens, UniProt P34949); test: MPI enzyme activity inhibition – biochemical, fluorescence intensity, coupled assay, primary screen (AID 1209)
T2 sequence (P34949 whole entry): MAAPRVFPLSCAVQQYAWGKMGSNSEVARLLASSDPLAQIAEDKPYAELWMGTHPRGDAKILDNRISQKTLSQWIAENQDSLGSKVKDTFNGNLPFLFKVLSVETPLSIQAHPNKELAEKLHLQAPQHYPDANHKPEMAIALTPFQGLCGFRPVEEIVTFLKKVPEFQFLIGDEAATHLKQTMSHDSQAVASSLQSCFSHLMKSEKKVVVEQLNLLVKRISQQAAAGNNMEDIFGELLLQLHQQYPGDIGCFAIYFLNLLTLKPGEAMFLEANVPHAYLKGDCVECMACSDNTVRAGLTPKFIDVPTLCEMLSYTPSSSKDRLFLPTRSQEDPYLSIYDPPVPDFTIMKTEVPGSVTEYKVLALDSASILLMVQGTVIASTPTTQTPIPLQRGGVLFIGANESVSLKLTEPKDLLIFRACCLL

[13] = target: T2, Mannose-6-phosphate isomerase; test: MPI inhibition at elevated mannose 6-phosphate – biochemical, fluorescence intensity, high mannose 6-phosphate, primary screen (AID 1220)
[14] = IC50 of Artemis nuclease activity blockers – biochemical, fluorescence intensity, dose response (AID 720701); format: functional;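 note: Artemis endonuclease enzyme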
[15] = target: Mitogen-activated protein kinase 10 (Homo sapiens, UniProt P53779); test: Dose response biochemical screening assay for inhibitors of c-Jun N-Terminal Kinase 3 (JNK3). [Related pubchem assays: 746 ]
Estrogen receptor = target: T3, Estrogen receptor (Homo sapiens, UniProt P03372);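 note: potency for inhibiting coactivator peptide recruitment to the receptor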
T3 sequence (P03372 whole entry): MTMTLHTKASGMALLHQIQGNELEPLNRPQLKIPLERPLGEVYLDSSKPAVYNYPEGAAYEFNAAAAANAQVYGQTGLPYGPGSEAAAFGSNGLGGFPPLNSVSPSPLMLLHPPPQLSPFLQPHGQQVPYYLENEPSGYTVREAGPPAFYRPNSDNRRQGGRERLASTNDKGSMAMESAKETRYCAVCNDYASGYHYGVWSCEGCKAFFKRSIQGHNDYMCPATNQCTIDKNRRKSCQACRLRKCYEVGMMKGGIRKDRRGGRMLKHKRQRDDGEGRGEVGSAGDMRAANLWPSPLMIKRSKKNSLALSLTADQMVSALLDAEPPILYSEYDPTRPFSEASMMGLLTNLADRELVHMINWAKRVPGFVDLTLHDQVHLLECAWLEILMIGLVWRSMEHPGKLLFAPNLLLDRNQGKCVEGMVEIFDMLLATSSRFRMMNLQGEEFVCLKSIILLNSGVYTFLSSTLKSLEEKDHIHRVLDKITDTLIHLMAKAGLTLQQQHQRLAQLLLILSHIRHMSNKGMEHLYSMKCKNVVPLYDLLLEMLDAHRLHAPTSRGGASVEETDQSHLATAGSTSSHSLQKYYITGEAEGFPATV

Estrogen receptor beta = Estrogen receptor beta (Homo sapiens, UniProt Q92731); test: blockers of SRC-3 recruitment to ERβ – biochemical, ELISA, streptavidin-HRP readout, orthogonal assay, confirmation (AID 1060)
Sequence of Estrogen receptor beta (Q92731 whole entry): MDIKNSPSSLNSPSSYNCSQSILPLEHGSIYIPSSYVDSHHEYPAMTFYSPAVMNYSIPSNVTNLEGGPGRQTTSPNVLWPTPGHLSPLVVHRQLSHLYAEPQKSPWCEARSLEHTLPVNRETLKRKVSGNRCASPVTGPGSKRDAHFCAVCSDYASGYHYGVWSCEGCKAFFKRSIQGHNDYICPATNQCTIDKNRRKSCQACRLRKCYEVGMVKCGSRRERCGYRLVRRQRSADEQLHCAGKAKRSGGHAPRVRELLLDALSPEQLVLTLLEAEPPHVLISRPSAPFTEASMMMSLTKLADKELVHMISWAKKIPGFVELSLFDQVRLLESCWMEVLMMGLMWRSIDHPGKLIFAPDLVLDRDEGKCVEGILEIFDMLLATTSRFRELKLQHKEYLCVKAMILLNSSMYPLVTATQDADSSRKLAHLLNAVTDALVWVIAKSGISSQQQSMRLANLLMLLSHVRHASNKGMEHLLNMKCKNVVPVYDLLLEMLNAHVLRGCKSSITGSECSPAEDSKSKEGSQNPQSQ

Sequence of Mitogen-activated protein kinase 10 (P53779 whole entry): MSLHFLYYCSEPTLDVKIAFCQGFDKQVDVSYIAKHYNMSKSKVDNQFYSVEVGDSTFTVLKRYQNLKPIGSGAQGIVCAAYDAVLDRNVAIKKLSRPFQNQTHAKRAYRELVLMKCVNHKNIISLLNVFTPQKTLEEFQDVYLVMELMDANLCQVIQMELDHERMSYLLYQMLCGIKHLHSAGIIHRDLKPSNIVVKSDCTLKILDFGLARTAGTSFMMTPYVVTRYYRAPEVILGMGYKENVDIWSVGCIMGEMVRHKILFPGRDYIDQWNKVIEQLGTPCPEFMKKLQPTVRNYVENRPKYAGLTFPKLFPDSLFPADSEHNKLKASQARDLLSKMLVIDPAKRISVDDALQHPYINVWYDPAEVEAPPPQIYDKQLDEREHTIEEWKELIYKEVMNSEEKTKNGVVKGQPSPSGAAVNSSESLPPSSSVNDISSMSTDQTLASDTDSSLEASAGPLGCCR

C1CCC(OCCN2CCN(CCOC3CCCCC3)CC2)CC1
EC50 [1]: < 0.1 µM (active) | EC50 [2]: > 30 µM (not active) | EC50 (cells): 0.067 µM (active)

C#CCSc1nnc(-c2ccc(OC)cc2)o1
EC50 [3]: 3.33 µM (active) | EC50 [4]: 7.23 µM (active) | EC50 [5]: < 0.1 µM (inconclusive) | EC50 (H4): > 120 µM (not active) | EC50 [6]: 5.49 µM (active) | EC50 [7]: 0.138 µM (active)

O=[N+]([O-])c1ccccc1-c1cc(-c2ccccc2)cc(-c2ccccc2)[n+]1Cc1ccccc1Cl.[O-][Cl+3]([O-])([O-])[O-]
EC50 [8]: 11.3 µM (active) | EC50 [9]: > 120 µM (not active) | EC50 [10]: > 120 µM (not active) | EC50 [1]: < 0.1 µM (active) | EC50 [2]: > 60 µM (not active) | AC50 (INS1): 2.14 µM (active) | EC50 (cells): 0.074 µM (active)

O=C(N/N=C/c1ccc([N+](=O)[O-])o1)c1cn(-c2ccccc2)nc1-c1ccc(F)cc1
EC50 [11]: 0.841 µM (active) | EC50 (Streptokinase A): > 150 µM (not active) | EC50 [1]: < 0.1 µM (active) | EC50 [2]: > 60 µM (not active) | EC50 (Streptococcus): 2.99 µM (active) | EC50 (cells): 0.03 µM (active)

O=C(NCCSc1ccccc1)c1ccccc1
EC50 [3]: 0.281 µM (active) | EC50 [5]: < 0.1 µM (inconclusive) | EC50 (H4): > 120 µM (not active) | EC50 [6]: 0.347 µM (active) | EC50 [7]: 0.198 µM (active)

CC(=O)C(C(C)=O)c1c(Cl)c(O)c(O)c2c(C(=O)c3ccccc3)coc12
IC50 [12]: > 50 µM (not active) | IC50 [13]: > 50 µM (not active)

Cc1cc(C)c(C(N)=O)c(Nc2cccc3ccccc23)n1
IC50 [12]: > 50 µM (not active) | IC50 [13]: > 50 µM (not active) | IC50 [14]: > 20 µM (inactive)

Cn1c(C(=O)N2CCN(Cc3ccc4c(c3)OCO4)CC2)cc2c(=O)n(C)c3ccccc3c21
IC50 [15]: 72.6 µM (not active)

N#CC1=C(N)OC2=C(CCC/C2=C/c2ccoc2)C1c1ccoc1 (configuration not stated)
IC50 (Estrogen receptor): 10 µM (active) | IC50 (Estrogen receptor beta): 3.99 µM (not active)

Cc1ccc(N2C(=O)CC(Sc3nc[nH]n3)C2=O)cc1 (configuration not stated)
IC50 [12]: > 50 µM (not active)

O=C(Nc1nncs1)c1ccc(N2C(=O)C3C4C=CC(C4)C3C2=O)cc1 (configuration not stated)
IC50 [15]: 62.9 µM (not active)
